Biological target: T1, human TSHR (Homo sapiens, UniProt P16473)
T1 construct: expressed in transfected cells
Assay: Antagonist activity using TSH-induced cAMP production in human TSHR-stably expressing CHO cells
Type: cell-based
Conditions: human TSH 50 ng/mL
Experimental: Measurement of Antagonist Activity Using TSH-Induced cAMP Production in Human TSHR-Stably Expressing CHO Cells as an Indicator
The human TSHR gene sequence (reference number NM_000369.2) was inserted into the multicloning site of pcDNA3.1(+). The constructed plasmid vector was introduced into CHO cells using the lipofection method to establish human TSHR-stably expressing CHO cells. The obtained cells were seeded at 5×10^4 cells/well in a 96-well poly-D-lysine-coated plate, and cultured in an F12 culture medium containing 10% FBS, 400 μg/mL of G418, 50 U/mL of penicillin and 50 μg/mL of streptomycin under conditions of 37° C. and 5% CO2 for 1 day. After the culture medium was removed, the cells were washed twice with 100 μL of an assay buffer solution (Hanks' Balanced Salt Solution containing 20 mM HEPES and 1 mM IBMX) per well. 30 μL of a test compound-containing assay buffer solution was added to the well and incubated at room temperature for 15 minutes. Then, 30 μL of an assay buffer solution containing human TSH (final concentration 50 ng/mL, R&D Systems, Inc.) was added, and incubated at 37° C. for 1 hour. The supernatant was removed, a Lysis and Detection Buffer 2 (Cisbio) was added, and the mixture was incubated at room temperature for 1 hour to prepare a cell lysate. According to the instruction manual of a cAMP Gs HiRange kit (Cisbio), the cell lysate, d2-labeled cAMP and anti-cAMP Europium Cryptate labeled antibodies (Cisbio) were reacted in a 384-well white microplate. Then, a fluorescence intensity ratio (measurement wavelength 665 nm/620 nm) was measured using a multi-plate reader (PHERAstar FSX, BMG LABTECH, Japan). The fluorescence intensity ratio of each sample was converted to a cAMP content using a standard curve. The cAMP content was converted as a percentage of the control value to calculate the cAMP production rate. The CAMP production rate was plotted against the test compound concentration using Prism (Graph Pad Software Inc.) to calculate the IC50 value. The IC50 of each test compound is shown in the above tables. In the tables, IC50<0.5 μM: A, 0.5 μM≤IC50<3.0 μM: B, 3.0 μM≤IC50<30 μM: C are shown.

T1 sequence (P16473 21-764): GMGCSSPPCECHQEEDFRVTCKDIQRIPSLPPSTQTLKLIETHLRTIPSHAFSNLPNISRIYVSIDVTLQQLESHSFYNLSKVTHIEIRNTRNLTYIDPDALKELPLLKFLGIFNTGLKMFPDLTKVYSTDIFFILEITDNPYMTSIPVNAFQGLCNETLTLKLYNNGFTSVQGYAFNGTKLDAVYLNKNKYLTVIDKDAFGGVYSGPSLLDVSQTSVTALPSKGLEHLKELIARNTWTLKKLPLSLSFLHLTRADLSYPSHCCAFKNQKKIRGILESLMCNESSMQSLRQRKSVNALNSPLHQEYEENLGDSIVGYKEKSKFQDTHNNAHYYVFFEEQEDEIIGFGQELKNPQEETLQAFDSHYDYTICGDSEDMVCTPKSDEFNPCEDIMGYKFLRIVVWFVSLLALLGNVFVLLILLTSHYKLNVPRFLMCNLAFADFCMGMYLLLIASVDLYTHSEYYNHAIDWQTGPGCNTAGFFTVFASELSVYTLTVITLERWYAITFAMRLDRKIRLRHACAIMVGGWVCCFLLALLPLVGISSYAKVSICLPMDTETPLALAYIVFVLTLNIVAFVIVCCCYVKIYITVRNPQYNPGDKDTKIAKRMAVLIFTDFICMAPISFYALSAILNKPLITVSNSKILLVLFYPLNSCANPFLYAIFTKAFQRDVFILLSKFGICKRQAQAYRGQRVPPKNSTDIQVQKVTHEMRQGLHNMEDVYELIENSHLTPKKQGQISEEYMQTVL

| IC50 [nM] | Compound |
| --- | --- |
| < 500 | CN1C(=O)[C@H](NC(N)=O)Cc2ccc(C(F)(F)F)c(Oc3cc(F)ccc3Cl)c21 [Example 74, ((3R)-8-(2-chloro-5-fluorophenoxy)-1-methyl-2-oxo-7-(trifluoromethyl)-1,2,3,4-tetrahydroquinolin-3-yl)urea] |
| < 500 | CN1C(=O)[C@H](NC(N)=O)Cc2ccc(C(C)(F)F)c(Oc3cc(F)ccc3Cl)c21 [Example 75, ((3R)-8-(2-chloro-5-fluorophenoxy)-7-(1,1-difluoroethyl)-1-methyl-2-oxo-1,2,3,4-tetrahydroquinolin-3-yl)urea] |
| < 500 | CCc1ccc2c(c1Oc1cc(F)ccc1Cl)N(C)C(=O)[C@H](NC(N)=O)C2 [Example 76, ((3R)-8-(2-chloro-5-fluorophenoxy)-7-ethyl-1-methyl-2-oxo-1,2,3,4-tetrahydroquinolin-3-yl)urea] |
| < 500 | CC(c1ccccc1Cl)c1cccc2c1N(C)C(=O)[C@H](NC(N)=O)C2 (stereo partly drawn) [Example 77, ((3R)-8-(1-(2-chlorophenyl)ethyl)-1-methyl-2-oxo-1,2,3,4-tetrahydroquinolin-3-yl)urea] |
| < 500 | CC(c1ccccc1C(F)(F)F)c1cccc2c1N(C)C(=O)[C@H](NC(N)=O)C2 (stereo partly drawn) [Example 78, ((3R)-1-Methyl-2-oxo-8-(1-(2-(trifluoromethyl)phenyl)ethyl)-1,2,3,4-tetrahydroquinolin-3-yl)urea] |
| < 500 | CC(c1cc(F)ccc1Cl)c1cccc2c1N(C)C(=O)[C@H](NC(N)=O)C2 (stereo partly shown) [Example 79] |
| < 500 | CNC(=O)N[C@@H]1Cc2ccc(C)c(Oc3cc(F)ccc3Cl)c2N(C)C1=O [Example 80, 1-((3R)-8-(2-chloro-5-fluorophenoxy)-1,7-dimethyl-2-oxo-1,2,3,4-tetrahydroquinolin-3-yl)-3-methylurea] |
| < 500 | CC(=O)N[C@@H]1Cc2ccc(C)c(Oc3cc(F)ccc3Cl)c2N(C)C1=O [Example 81, N-((3R)-8-(2-chloro-5-fluorophenoxy)-1,7-dimethyl-2-oxo-1,2,3,4-tetrahydroquinolin-3-yl)acetamide] |
| < 500 | Cc1ccc2c(c1Oc1cc(F)ccc1Cl)N(C)C(=O)[C@H](NC(=O)C1CC1)C2 [Example 82] |
| < 500 | Cc1ccc2c(c1Oc1cc(F)ccc1Cl)N(C)C(=O)[C@H](NC(=O)C(Cl)Cl)C2 [Example 83] |
| < 500 | CN1C(=O)[C@H](NC(=O)C2CC2)Cc2cccc(Oc3cc(F)ccc3Cl)c21 [Example 84] |
| < 500 | Cc1ccc2c(c1Oc1cc(F)ccc1Cl)N(C)C(=O)[C@H](NC(=O)CC(F)(F)F)C2 [Example 85, N-((3R)-8-(2-chloro-5-fluorophenoxy)-1,7-dimethyl-2-oxo-1,2,3,4-tetrahydroquinolin-3-yl)-3,3,3-trifluoropropanamide] |

Biological target: T2, TSHR (Mus musculus, UniProt P47750)
T2 construct: host or cells: mice (in vivo)
Assay: not given
Conditions: mice in which TRH has been administered and mice in which thyroid stimulating antibodies M22 has been administered; cited from earlier work

T2 sequence (P47750 22-764): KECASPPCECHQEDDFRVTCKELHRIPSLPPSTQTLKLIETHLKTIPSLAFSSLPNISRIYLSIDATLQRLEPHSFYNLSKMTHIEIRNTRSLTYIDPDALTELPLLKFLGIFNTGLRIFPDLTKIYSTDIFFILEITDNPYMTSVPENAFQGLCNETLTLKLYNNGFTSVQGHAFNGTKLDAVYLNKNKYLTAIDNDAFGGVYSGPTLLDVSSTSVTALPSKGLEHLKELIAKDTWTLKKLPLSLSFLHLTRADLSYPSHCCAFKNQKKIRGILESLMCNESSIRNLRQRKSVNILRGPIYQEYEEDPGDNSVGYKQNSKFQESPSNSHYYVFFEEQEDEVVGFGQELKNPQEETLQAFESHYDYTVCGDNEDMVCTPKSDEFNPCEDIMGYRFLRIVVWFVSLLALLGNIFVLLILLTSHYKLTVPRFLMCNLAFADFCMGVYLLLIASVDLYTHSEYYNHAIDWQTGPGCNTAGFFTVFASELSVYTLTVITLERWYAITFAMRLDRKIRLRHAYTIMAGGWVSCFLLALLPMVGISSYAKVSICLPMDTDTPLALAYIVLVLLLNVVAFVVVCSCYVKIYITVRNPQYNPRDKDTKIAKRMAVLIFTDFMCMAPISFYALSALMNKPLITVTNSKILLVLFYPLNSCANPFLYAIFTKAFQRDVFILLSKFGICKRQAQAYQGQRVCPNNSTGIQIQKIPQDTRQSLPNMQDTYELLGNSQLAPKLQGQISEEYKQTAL

| Compound | blood T4 concentration |
| --- | --- |
| COc1ccc(C2Nc3ccccc3C(=O)N2Cc2ccco2)cc1COc1c(C)cc(NC(C)=O)cc1C (stereo not shown) [NCGC00242364] | blood T4 concentration lowering effect |
